Data on three molecules can be found in patent US20130252930A1 (BIOMARIN PHARMACEUTICAL INC., priority 2010, published 2013).

Read-outs that look alike come from different tables or passages of the source. A value given as a limit tells only on which side of the number the result lay.

One data set concerns the target T1, CYP17 (H295R cells) (Homo sapiens, UniProt P05093).
T1 construct: endogenous in cells; host or cells: H295R cells
T1 sequence (P05093 1-508): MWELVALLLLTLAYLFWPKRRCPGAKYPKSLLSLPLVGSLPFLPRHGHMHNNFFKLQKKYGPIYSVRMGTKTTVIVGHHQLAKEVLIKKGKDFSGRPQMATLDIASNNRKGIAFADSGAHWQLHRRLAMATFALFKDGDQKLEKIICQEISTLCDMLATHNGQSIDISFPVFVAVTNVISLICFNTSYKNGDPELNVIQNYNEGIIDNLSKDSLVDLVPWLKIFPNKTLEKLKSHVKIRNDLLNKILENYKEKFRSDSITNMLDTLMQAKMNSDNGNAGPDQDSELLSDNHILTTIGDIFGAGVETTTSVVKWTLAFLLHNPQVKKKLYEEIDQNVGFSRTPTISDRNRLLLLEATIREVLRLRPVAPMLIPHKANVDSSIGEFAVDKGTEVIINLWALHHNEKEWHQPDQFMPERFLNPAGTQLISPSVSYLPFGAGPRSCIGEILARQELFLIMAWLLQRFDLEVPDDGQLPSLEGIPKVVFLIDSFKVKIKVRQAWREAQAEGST
The data set is described as follows: CYP17 cellular assay (IC50), testosterone in H295R cells (Biological Example 7). It counts as cell-based. To be noted: H295R cells. The gist of the method: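 H295R cells cultured 24 h, then exposed to compound at 100, 10, 1, 0.1 nM final in serum-free DMEM/F-12 with ITS+ and 0.1% methanol for 24 h at 37 °C. Medium testosterone measured by ELISA and plotted against compound concentration.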

Data set [1] addresses T2, Cyp21 enzyme (Human HEK 293-Cyp21 stable transfected cells) (Homo sapiens, UniProt P08686).
T2 construct: expressed in transfected cells
T2 sequence (P08686 1-495): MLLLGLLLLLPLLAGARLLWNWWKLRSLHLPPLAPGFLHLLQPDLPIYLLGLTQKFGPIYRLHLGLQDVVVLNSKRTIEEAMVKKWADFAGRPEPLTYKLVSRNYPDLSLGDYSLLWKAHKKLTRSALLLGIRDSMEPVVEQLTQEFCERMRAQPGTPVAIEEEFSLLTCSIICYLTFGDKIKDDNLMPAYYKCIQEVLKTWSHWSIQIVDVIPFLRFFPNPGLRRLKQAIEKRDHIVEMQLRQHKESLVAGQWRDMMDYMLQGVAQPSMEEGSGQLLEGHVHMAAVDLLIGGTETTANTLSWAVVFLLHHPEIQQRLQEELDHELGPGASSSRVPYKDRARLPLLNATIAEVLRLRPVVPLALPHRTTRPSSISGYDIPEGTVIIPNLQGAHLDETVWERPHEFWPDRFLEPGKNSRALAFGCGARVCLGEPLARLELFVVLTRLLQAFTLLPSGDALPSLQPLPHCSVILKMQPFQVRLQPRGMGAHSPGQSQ
The data set is described as follows: CYP21-HEK293 enzymatic assay (% inhibition at 100 nM) (Biological Example 10). The data set is classed as cell-based. Particulars: HEK 293-Cyp21 cells. The method, boiled down: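 HEK293 cells stably expressing human Cyp21 in DMEM + 10% FBS got compound (100 nM reported) for 5 h at 37 °C; 1% methanol served as mock. Progesterone substrate (final 10 μM) was then added for 20 h. DOC in the medium was measured by competitive ELISA (OD 450 nm) against a standard curve.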

Data set [2] deals with T3, CYP17 (human testicular microsome) (Homo sapiens, UniProt P05093).
T3 construct: using microsomal fraction from human testis (Celsis Cat #S00110) as the enzyme source; tissue Celsis S00110; host or cells: human testis microsomal fraction
T3 sequence (P05093 1-508): T1 sequence (P05093 1-508)
The data set is described as follows: CYP17 enzymatic assay (% inhibition at 10 nM), version 1 (Biological Example 5). The data set is classed as biochemical. Particulars: 10 nM compound, DHEA by ELISA, read-out: Biological Example No. 5: CYP17 percent inhibition at 10 nM (version 1). On the technique in general: An ELISA detects its analyte on a solid surface through an enzyme-linked reagent.
Procedure: The assays were performed in 96-well plates. Typical assays were carried out in total 100 μL volume that included test compounds at 10 nM concentration, 1× reaction buffer, 0.5 mM NADPH, 1 μM 17α-hydroxypregnenolone, and 2.5 μL of diluted human testicular microsome (Celsis. Cat #S00110). Reaction without test compound served as positive control. Reactions were allowed to incubate at 37° C. for 90 minutes with gentle shaking. The reaction was stopped by directly applying the enzymatic reaction mixture to ELISA plate for evaluation of DHEA concentration according to manufacturer's protocol (IBL America). A standard curve (OD450 vs. DHEA concentration) was generated using purified DHEA. […] Percent inhibition (inhibition %) of the compound was calculated using normalized DHEA concentration based on following formula: 100-([DHEA] of compound/[DHEA] of positive control *100).

The nature of data set [3]: Rat liver microsome stability assay (Biological Example 8a). Particulars: liver microsomes, pH 7.4.
[4] abbreviates: testosterone by ELISA, 24 hours, read-out: Biological Example No. 7: CYP17 cellular assay IC50.
Setting [5] is: 100 nM compound, read-out: Biological Example No. 10: CYP21-HEK293 percent inhibition at 100 nM.

Broadly, the IC50 is the point on the concentration scale where inhibition reaches its midpoint. As usually defined, the inhibition is the change of the read-out against control, counted positive when it falls. Regarding `CC(=O)NC1CC[C@@]2(C)C(=CCC3C2CC[C@]2(C)C(n4ccnc4)=CCC32)C1` (stereo partly drawn) [Compound 237, N-((10R,13S)-17-(1H-imidazol-1-yl)-10,13-dimethyl-2,3,4,7,8,9,10,11,12,13,14,15-dodecahydro-1H-cyclopenta[a]phenanthren-3-yl)acetamide], the 50% inhibitory concentration (IC50) on CYP17 (H295R cells) (testosterone, read-out: CYP17 cellular assay IC50 (Biological Example No. 7)) is < 0.015 µM. Moreover, the inhibition at 0.1 µM in data set [1] (compound at 100 nM, read-out: CYP21-HEK293 enzymatic assay % inhibition at 100 nM (Biological Example No. 10)) was < 30%.

As a reminder, the half-life is how long it takes for the measured level to halve. Read a high half-life as slow decline. For `C[C@]12CC(O)C[C@@H]1CC[C@@H]1[C@@H]2CC[C@]2(C)C(n3ccnc3)=CC[C@@H]12` (stereo partly drawn) [Compound 109, (3aS,5aS)-6-(1H-imidazol-1-yl)-3a,5a-dimethyl-1,2,3,3a,3b,4,5,5a,8,8a,8b,9,10,10a-tetradecahydrodicyclopenta[a,f]naphthalen-2-ol], the inhibition at 0.01 µM in data set [2] is > 80%. Further, on CYP17 (H295R cells) (setting [4]), the IC50 is < 0.015 µM. Further, in data set [1] (setting [5]), the inhibition at 0.1 µM was ≥ 30%. In data set [3], the half-life at 1 μM lay within 10 to 60 min.

For the molecule `C[C@]12CC[C@H]3[C@@H](CC=C4C[C@@H](O)CC[C@@]43C)C1=CC=C2c1cccnc1` [Compound 79, (3S,10R,13S)-10,13-dimethyl-17-(pyridin-3-yl)-2,3,4,7,8,9,10,11,12,13-decahydro-1H-cyclopenta[a]phenanthren-3-ol], in data set [2], the inhibition at 0.01 µM was in the range of 50 to 80%. Further, the IC50 on CYP17 (H295R cells) (setting [4]) is < 0.015 µM. In data set [1] (setting [5]), the inhibition at 0.1 µM is < 30%. Moreover, the half-life at 1 μM in data set [3] was 10 to 60 min.
